Source: patent publication US4678666A, “Topical anti-inflammatory compositions” (Pfizer Inc., priority 1982, dated 1987)
“Also recorded” adds a separate entry of the source. Where two headings read alike, the source gives them in different places.

Legend:
[1] = words, background; cited from earlier work
[2] = cited from earlier work
[3] = At a higher pH than 9.0; cited from earlier work
[4] = Solubility of Piroxicam with solubilizers; type: physicochemical
Description: This invention employs a solubilizing agent to dissolve piroxicam in bases for formulation; the piroxicam-solubilizing agent is selected from the class of alkanolamines. […] The monoalkanolamines have from one to four carbon atoms and include methanolamine, ethanolamine, propanolamine and butanolamine. The dialkanolamines have from two to eight carbon atoms and include dimethanolamine, diethanolamine, dipropanolamine and dibutanolamine. The trialkanolamines have from three to twelve carbon atoms and include trimethanolamine, triethanolamine, tripropanolamine and tributanolamine.

[5] = system: carragenin-induced foot edema; assay: Carragenin-induced rat foot edema test; type: in vivo; settings: oral administration, 1 mg./kg.
Procedure: The anti-inflammatory activity of the compositions of this invention was determined using the standard carragenin-induced rat foot edema test. [C. A. Winter et al., Proceedings of the Society for Experimental Biology and Medicine, Vol. 111, p. 544 (1962)]. Piroxicam ointment (1%), prepared according to Example 10, was administered topically at a dose level of 100 mg. per rat. The results obtained are presented in the table below (Table 6) in terms of the percent inhibition of edema formation, as compared to the non-drug treated control and the oral administration of piroxicam (1 mg./kg.): […]

Structure (SMILES)	Solubility relative to piroxicam [1]	Absorption through skin ([2]; compounded in suspension with conventional bases for ointment or cream)	Absorption through skin ([2]; tincture, dissolved in an alcoholic solvent such as ethanol)	Chemical stability [3]	Solubility of Piroxicam ([4]; Ammonia 10%, solvent: water)	Solubility of Piroxicam ([4]; Control (none), no solubilizer, solvent: water)	Solubility of Piroxicam ([4]; Di-isopropanolamine 10%, solvent: water)	Solubility of Piroxicam ([4]; Di-isopropyl adipate 10%, solvent: 1:1 water-ethanol)	Solubility of Piroxicam ([4]; Diethanolamine 10%, solvent: water)	Solubility of Piroxicam ([4]; Diethyl sebacate 10%, solvent: 1:1 water-ethanol)	Solubility of Piroxicam ([4]; Ethanolamine 10%, solvent: water)	Solubility of Piroxicam ([4]; Isopropyl myristate 10%, solvent: 1:1 water-ethanol)	Solubility of Piroxicam ([4]; N-Ethyl-o-crotonotoluidide 10%, solvent: 1:1 water-ethanol)	% Inhibition of edema [5]	Liposolubility [1]	Solubility in water [1]
CN1C(C(=O)Nc2ccccn2)=C(O)c2ccccc2S1(=O)=O [hydrate]	less soluble than piroxicam itself															
CN1C(C(=O)Nc2ccccn2)=C(O)c2ccccc2S1(=O)=O [Piroxicam, N-(2-pyridyl)-2-methyl-4-hydroxy-2H-1,2-benzothiazine-3-carboxamide 1,1-dioxide]		poorly absorbed through skin	will not be absorbed through the skin	chemically unstable and may even decompose or deteriorate in quality	60.0 mg/g	0.01 mg/g	195 mg/g	1.2 mg/g	204 mg/g	2.0 mg/g	392 mg/g	0.4 mg/g	1.8 mg/g	39.6%	not liposoluble	sparingly soluble in water; also recorded: sparingly soluble in water or any other solvent
